From patent US10273262B2, “Crystalline form A of obeticholic acid and preparation method thereof” (CRYSTAL PHARMATECH CO., LTD., priority 2014, dated 2019)

Conditions: ethyl acetate and n-heptane 1:9, 25° C., 500 rpm, 24 hours
Text: X-ray powder diffraction pattern in the present invention was acquired by a Panalytical Empyrean X-ray powder diffractometer. The parameters of the X-ray powder diffraction method of the present invention were as follows: • X-ray Reflection: Cu, Kα • Kα1 (Å): 1.540598; Kα2 (Å): 1.544426 • Kα2/Kα1 intensity ratio: 0.50 • Voltage: 45 (kV) • Current: 40 (mA) • Scan range: from 3.0 degree to 40.0 degree The pattern of differential scanning calorimetry (DSC) in the present invention was acquired by a TA Q200. The parameters of the differential scanning calorimetry (DSC) method of the present invention were as follow: • Heating rate: 10° C./min • Purge gas: nitrogen. The pattern of thermal gravimetric analysis (TGA) in the present invention was acquired by a TA Q5000. The parameters of the thermal gravimetric analysis (TGA) method of the present invention were as follow: • Heating rate: 10° C./min; • Purge gas: nitrogen.
The suspension was stirred at 500 rpm in a thermostat at 25° C. for 24 hours, and centrifuged to give a solid which was tested by XRPD.

- Crystal form after stirring the suspension (form conversion by XRPD): transferred to crystalline Form A
SMILES: CC[C@H]1[C@@H](O)[C@@H]2[C@H](CC[C@]3(C)[C@@H]([C@H](C)CCC(=O)O)CC[C@@H]23)[C@@]2(C)CC[C@@H](O)C[C@@H]12 [Form C, obeticholic acid]
